Test results from patent US9265781B2, “Process for producing a particulate composition comprising anhydrous crystalline 2-O-alpha-D-glucosyl-L-ascorbic acid” (HAYASHIBARA CO., LTD., priority 2009, dated 2016).

Assay: Accelerated heat-treatment test for browning (Experiment 4)
Type: physicochemical
Conditions: 150 mg heated at 80° C. for three days, dissolved in 3 ml water, absorbance at 400 nm
Source text: Accordingly, in this experiment, Test samples 1 and 12 to 16, which had been used in the antecedent Experiments, were examined for the relationship between the coloration and the total content of L-ascorbic acid plus D-glucose, the content of L-ascorbic acid, or the reducing power of the whole particulate composition by conducting an accelerated test on heat treatment according to the following procedures:
One hundred and fifty milligrams of each of the test samples was weighed and placed in a 10-ml test tube with a screw cap, and the test tubes in a closed condition of their opening parts with the screw caps were placed in “DRYING-OVEN SA310”, a product name of an oven commercialized by Masuda Corp., Osaka, Japan, and heated at 80° C. for three days. […] The resulting solutions were measured for absorbance at a wavelength of 400 nm using “UV-2400PC”, a product name of a spectrophotometer commercialized by Shimadzu Corp., Kyoto, Japan. The degree of coloration caused by heating was judged based on the following two criteria: When the absorbance at a wavelength of 400 nm is less than 0.50, it is judged as “Not browned or substantially not browned” (−); and when the absorbance at a wavelength of 400 nm is 0.50 or higher, it is judged as “Browned” (+).

O=C1O[C@H]([C@@H](O)CO)C(O)=C1O[C@H]1O[C@H](CO)[C@@H](O)[C@H](O)[C@H]1O [Test sample 16, 2-O-α-D-glucosyl-L-ascorbic acid]
Browning property: + (when the absorbance at a wavelength of 400 nm is 0.50 or higher, it is judged as “Browned” (+))
